Here are results for one molecule from patent publication US11993576B2, “N-benzyl-N-arylsulfonamide derivative and preparation and use thereof” (Hangzhou Yirui Pharmaceutical Technology Co., Ltd, priority 2019, dated 2024).

This assay concerns the target human Kv1.3 (Homo sapiens, UniProt P22001). Kind of assay: IonWorks automated patch clamp assay of inhibitory activity against Kv1.3. The conditions noted are these: automated patch clamp method; CHO-K1 cells stably expressing human Kv1.3. The class given is cell-based. The method in brief:
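CHO-K1 cells stably expressing human Kv1.3, perforated-patch IonWorks Quattro (amphotericin B 200 μg/mL internal), external solution pH 7.3. Compounds 0.00384-30 μM final, 0.3% DMSO, 600 s incubation; four 1 s pulses to 0 mV from −80 mV. Inhibition from peak current ratio after/before compound.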
For orientation: In patch-clamp work, channel activity is measured electrically.

Chain of human Kv1.3 (P22001 whole entry): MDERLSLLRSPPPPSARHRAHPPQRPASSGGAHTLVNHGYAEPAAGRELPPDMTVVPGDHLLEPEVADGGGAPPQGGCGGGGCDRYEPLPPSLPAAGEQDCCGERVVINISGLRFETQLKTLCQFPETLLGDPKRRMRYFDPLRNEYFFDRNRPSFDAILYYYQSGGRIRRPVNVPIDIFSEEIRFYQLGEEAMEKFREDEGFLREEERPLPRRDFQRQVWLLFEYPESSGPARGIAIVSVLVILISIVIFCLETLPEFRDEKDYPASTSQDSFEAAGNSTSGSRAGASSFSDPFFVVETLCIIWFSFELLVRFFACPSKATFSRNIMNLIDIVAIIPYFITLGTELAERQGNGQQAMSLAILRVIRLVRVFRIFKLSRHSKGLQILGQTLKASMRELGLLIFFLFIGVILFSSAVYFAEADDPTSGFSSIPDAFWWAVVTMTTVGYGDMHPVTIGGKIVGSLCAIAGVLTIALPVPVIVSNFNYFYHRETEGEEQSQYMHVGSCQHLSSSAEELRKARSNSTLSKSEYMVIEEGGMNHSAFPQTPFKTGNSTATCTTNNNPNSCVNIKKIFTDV

Take `CC(C)CS(=O)(=O)N(Cc1ccc(F)cc1)c1ccc(N2CCN(C(=O)N(C)C)CC2)c(C#N)c1` [Compound 37, 4-(2-cyano-4-((N-(4-fluorobenzyl)-2-methylpropyl)sulfonamido)phenyl)-N,N-dimethylpiperazin-1-formamide]: half-maximal inhibition (IC50) required 92 nM.
